According to patent US20250171451A1, “NOVEL HETEROCYCLIC COMPOUND AND PHARMACEUTICAL COMPOSITION COMPRISING SAME” (Samjin Pharmaceutical Co., Ltd., priority 2022, published 2025):

Experiments:
[1] = target: T1, recombinant GST-TEAD1 proteins (209 to 426 a.a.) (Homo sapiens, UniProt P28347); test: Evaluation of palmitoylation of TEAD protein; format: biochemical; conditions: 5 μM compound, 15 minutes preincubation, 3 μM alkyne palmitoyl-CoA 30 minutes, pH 6.4, vs DMSO control
T1 construct: recombinant GST-TEAD1 proteins (209 to 426 a.a.)
T1 sequence (P28347 209-426): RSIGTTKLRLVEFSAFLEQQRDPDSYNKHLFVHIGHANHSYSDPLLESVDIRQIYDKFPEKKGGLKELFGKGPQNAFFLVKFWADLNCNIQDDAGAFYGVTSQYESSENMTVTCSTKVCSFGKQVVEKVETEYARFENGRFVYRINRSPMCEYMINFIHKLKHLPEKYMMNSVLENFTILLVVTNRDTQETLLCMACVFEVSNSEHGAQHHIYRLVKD
Description: Each compound corresponding to a concentration of 5 μM was added to recombinant GST-TEAD1 proteins (209 to 426 a.a.) and cultured for 15 minutes. For an autopalmitoylation reaction of proteins after culturing, 3 μM alkyne palmitoyl-CoA (Cayman chemical) and 50 mM MES buffer (pH 6.4) were added and cultured for 30 minutes, after which 1% of sodium dodecyl sulfate (SDS) was added to stop the reaction. After that, biotinylation was performed through a CLICK (Click chemistry tools) reaction, and then a protein solution was concentrated to prepare a sample.
Analysis of the sample was performed using SDS-PAGE and streptavidin HRP (Thermo scientific). The resulting values were quantified using an Image J (NIH). For the intensity of the band obtained from Streptavidin blot, a palmitoylation inhibitory activity was analyzed based on the control group (DMSO). The normalization of each sample was performed using an anti-GST (91G1) (cell signaling) antibody.

[2] = test system: TEAD response element (TRE) luciferase reporter in MCF-7 cell lines; test: TEAD response element (TRE) reporter assay; format: cell-based; conditions: Homo sapiens, MCF7; 0.2 μM compound, 24 hours, MCF-7 TEAD reporter cells, relative to vehicle (1% DMSO)
Description: MCF-7 cell lines injected with TEAD reporter genes expressing firefly luciferase upon activation of TEAD response element (TRE) were obtained from BPS bioscience (#60618). The TEAD reporter genes were injected to stable expression in the MCF-7 cell lines.
TEAD reporter genes expressing firefly luciferase upon activation of TEAD response element (TRE) were injected with TEAD reporter genes to ensure stable expression of the TEAD reporter genes. Here, the TEAD reporter genes expresses firefly luciferase upon activation of TEAD response element (TRE). The cells were cultured in a cell-only culture medium (BPS bioscience) to which 10 μg/mL insulin (Sigma) was added at 37° C. and 5% CO2.
In 24 hours after dispensing said cells into a 96-well plate, each of the compounds of the examples or a vehicle solvent (final 1% DMSO) was treated by being diluted with a serum-free culture medium so that the final concentration became 0.2 μM. In 24 hours after said treatment, a luciferase assay working solution (ONE-Step Luciferase assay reagent; BPS bioscience) containing a luciferase substrate was treated in each well at 100 μL, and then left in a shaker for 15 minutes to be well mixed. Then, a degree of luminescence generated by luciferase expressed according to TEAD activation was measured by a microplate reader (TECAN). A relative activity of luciferase […], and the results are shown in table 8 below.

Compound | inhibition at 5 µM [1] [%] | inhibition at 0.2 µM [2] [%]
C=CC(=O)Nc1ccc2c(C)nn(Cc3ccc(C(F)(F)F)cc3)c2c1 [Compound 32, N-(3-methyl-1-(4-(trifluoromethyl)benzyl)-1H-indazol-6-yl)acrylamide] | 40 to 80 | > 50
C=CC(=O)Nc1ccc2c(c1)c(C)nn2Cc1ccc(C(F)(F)F)cc1 [Compound 33, N-(3-methyl-1-(4-(trifluoromethyl)benzyl)-1H-indazol-5-yl)acrylamide] | 40 to 80 | > 50
C=CC(=O)Nc1ccc2cnn(-c3ccc(C(F)(F)F)cc3)c2c1 [Compound 34, N-(1-(4-(trifluoromethyl)phenyl)-1H-indazol-6-yl)acrylamide] | 40 to 80 | 30 to 50
C=CC(=O)Nc1cnc2c(cnn2-c2ccc(C(F)(F)F)cc2)c1 [Compound 35, N-(1-(4-(trifluoromethyl)phenyl)-1H-pyrazolo[3,4-b]pyridin-5-yl)acrylamide] | 40 to 80 | > 50
C=CC(=O)Nc1cnc2c(ccn2-c2ccc(C(F)(F)F)cc2)c1 [Compound 36, N-(1-(4-(trifluoromethyl)phenyl)-1H-pyrrolo[2,3-b]pyridin-5-yl)acrylamide] | > 80 | > 50
C=CC(=O)Nc1cnc2c(c1)c(C)cn2-c1ccc(C2CCCCC2)cc1 [Compound 37, N-(1-(4-cyclohexylphenyl)-3-methyl-1H-pyrrolo[2,3-b]pyridin-5-yl)acrylamide] | > 80 | < 30
C=CC(=O)Nc1ccc2c(Br)nn(Cc3ccc(C(F)(F)F)cc3)c2c1 [Compound 38, N-(3-bromo-1-(4-(trifluoromethyl)benzyl)-1H-indazol-6-yl)acrylamide] | > 80 | 30 to 50
C=CC(=O)Nc1ccc2c(c1)CCN2c1ccc(C(F)(F)F)cc1 [Compound 39, N-(1-(4-(trifluoromethyl)phenyl)indolin-5-yl)acrylamide] | 40 to 80 | 30 to 50
C=CC(=O)Nc1cnc2c(n1)c(C)cn2-c1ccc(C(F)(F)F)cc1 [Compound 41, N-(7-methyl-5-(4-(trifluoromethyl)phenyl)-5H-pyrrolo[2,3-b]pyrazin-2-yl)acrylamide] | 40 to 80 | > 50
C=CC(=O)Nc1cnc2c(c1)c(C)cn2Cc1ccc(C(C)(C)C)cc1 [Compound 44, N-(1-(4-(tert-butyl)benzyl)-3-methyl-1H-pyrrolo[2,3-b]pyridin-5-yl)acrylamide] | 40 to 80 | < 30
C=CC(=O)Nc1cnc2c(c1)c(C)cn2Cc1ccc(OC(F)(F)F)cc1 [Compound 45, N-(3-methyl-1-(4-(trifluoromethoxy)benzyl)-1H-pyrrolo[2,3-b]pyridin-5-yl)acrylamide] | 40 to 80 | > 50
C=CC(=O)Nc1cnc2c(ccn2-c2ccc(C(F)(F)F)cc2)n1 [Compound 46, N-(5-(4-(trifluoromethyl)phenyl)-5H-pyrrolo[2,3-b]pyrazin-2-yl)acrylamide] | 40 to 80 | < 30
C=CC(=O)Nc1cnc2c(c1)c(C)cn2-c1ccc(C(C)C)cc1 [Compound 47, N-(1-(4-isopropylphenyl)-3-methyl-1H-pyrrolo[2,3-b]pyridin-5-yl)acrylamide] | > 80 | 30 to 50
C=CC(=O)Nc1cnc2c(c1)c(C)nn2CCC(C)C [Compound 48, N-(1-isopentyl-3-methyl-1H-pyrazolo[3,4-b]pyridin-5-yl)acrylamide] | 40 to 80 | > 50
C=CC(=O)Nc1cnc2c(c1)c(C)nn2Cc1ccc(OC(F)(F)F)cc1 [Compound 49, N-(3-methyl-1-(4-(trifluoromethoxy)benzyl)-1H-pyrazolo[3,4-b]pyridin-5-yl)acrylamide] | 40 to 80 | < 30
C=CC(=O)Nc1cnc2c(c1)c(C)nn2-c1ccc(C(C)C)cc1 [Compound 51, N-(1-(4-isopropylphenyl)-3-methyl-1H-pyrazolo[3,4-b]pyridin-5-yl)acrylamide] | > 80 | < 30
C=CC(=O)Nc1cnc2c(c1)c(C)nn2-c1cccc(C(F)(F)F)c1 [Compound 52, N-(3-methyl-1-(3-(trifluoromethyl)phenyl)-1H-pyrazolo[3,4-b]pyridin-5-yl)acrylamide] | 40 to 80 | > 50
C=CC(=O)Nc1cnc2c(c1)c(C)cn2Cc1ccc(C(F)(F)F)c(OC)c1 [Compound 53, N-(1-(3-methoxy-4-(trifluoromethyl)benzyl)-3-methyl-1H-pyrrolo[2,3-b]pyridin-5-yl)acrylamide] | < 40 | > 50
C=CC(=O)Nc1cnc2c(c1)c(C)cn2Cc1cccc(C(F)(F)F)c1 [Compound 55, N-(3-methyl-1-(3-(trifluoromethyl)benzyl)-1H-pyrrolo[2,3-b]pyridin-5-yl)acrylamide] | 40 to 80 | > 50
C=CC(=O)Nc1cnc2c(c1)c(C)nn2Cc1cccc(C(F)(F)F)c1 [Compound 56, N-(3-methyl-1-(3-(trifluoromethyl)benzyl)-1H-pyrazolo[3,4-b]pyridin-5-yl)acrylamide] | < 40 | > 50
C=CC(=O)Nc1cnc2c(c1)c(C)cn2C1CCCCC1 [Compound 57, N-(1-cyclohexyl-3-methyl-1H-pyrrolo[2,3-b]pyridin-5-yl)acrylamide] | 40 to 80 | < 30
C=CC(=O)Nc1cnc2c(c1)c(C)cn2-c1ccc(OC(F)(F)F)cc1 [Compound 58, N-(3-methyl-1-(4-(trifluoromethoxy)phenyl)-1H-pyrrolo[2,3-b]pyridin-5-yl)acrylamide] | > 80 | < 30
C=CC(=O)Nc1cnc2c(c1)c(C)cn2-c1ccc(C(F)(F)F)c(OC)c1 [Compound 59, N-(1-(3-methoxy-4-(trifluoromethyl)phenyl)-3-methyl-1H-pyrrolo[2,3-b]pyridin-5-yl)acrylamide] | > 80 | 30 to 50
C=CC(=O)Nc1cnc2c(c1)c(C)nn2Cc1ccc(C(C)(C)C)cc1 [Compound 60, N-(1-(4-(tert-butyl)benzyl)-3-methyl-1H-pyrazolo[3,4-b]pyridin-5-yl)acrylamide] | 40 to 80 | < 30
C=CC(=O)Nc1cnc2c(c1)c(C)nn2Cc1ccc(C(F)(F)F)c(OC)c1 [Compound 61, N-(1-(3-methoxy-4-(trifluoromethyl)benzyl)-3-methyl-1H-pyrazolo[3,4-b]pyridin-5-yl)acrylamide] | < 40 | > 50
C=CC(=O)Nc1cnc2c(c1)c(C)nn2Cc1ccc(C(F)(F)F)s1 [Compound 62, N-(3-methyl-1-((5-(trifluoromethyl)thiophen-2-yl)methyl)-1H-pyrazolo[3,4-b]pyridin-5-yl)acrylamide] | 40 to 80 | 30 to 50
C=CC(=O)Nc1cnc2c(c1)c(C)cn2Cc1ccc(C(F)(F)F)s1 [Compound 63, N-(3-methyl-1-((5-(trifluoromethyl)thiophen-2-yl)methyl)-1H-pyrrolo[2,3-b]pyridin-5-yl)acrylamide] | 40 to 80 | 30 to 50
